Data published in patent US20170050957A1, “4-AMINO-6-(HETEROCYCLIC)PICOLINATES AND 6-AMINO-2-(HETEROCYCLIC)PYRIMIDINE-4-CARBOXYLATES AND THEIR USE AS HERBICIDES” (Dow AgroSciences LLC, priority 2013, published 2017).

Test system: Wheat and Barley and test plant species
Experiment: Post-emergent Test III, herbicidal activity in wheat and barley (Table 17; visual injury, GR20/GR50/GR80/GR90)
Format: in vivo
Conditions: 21 d; for Visual Growth Reduction (%) 21 Days After Application, CIRAR / Visual Growth Reduction (%) 21 Days After Application, GALAP / Visual Growth Reduction (%) 21 Days After Application, HORVS / Visual Growth Reduction (%) 21 Days After Application, KCHSC / Visual Growth Reduction (%) 21 Days After Application, LAMPU / Visual Growth Reduction (%) 21 Days After Application, MATCH / Visual Growth Reduction (%) 21 Days After Application, PAPRH / Visual Growth Reduction (%) 21 Days After Application, SASKR / Visual Growth Reduction (%) 21 Days After Application, SINAR / Visual Growth Reduction (%) 21 Days After Application, TRZAS / Visual Growth Reduction (%) 21 Days After Application, VERPE / Visual Growth Reduction (%) 21 Days After Application, VIOTR: post-emergent
Description: Post-emergent Test III. Seeds of the desired test plant species were planted in Sun Gro MetroMix® 306 planting mixture, which typically has a pH of 6.0 to 6.8 and an organic matter content of about 30 percent, in plastic pots with a surface area of 103.2 square centimeters (cm^2). When required to ensure good germination and healthy plants, a fungicide treatment and/or other chemical or physical treatment was applied. The plants were grown for 7-36 days (d) in a greenhouse with an approximate 14 hour (h) photoperiod which was maintained at about 18° C. during the day and 17° C. during the night. Nutrients and water were added on a regular basis and supplemental lighting was provided with overhead metal halide 1000-Watt lamps as necessary. The plants were employed for testing when they reached the second or third true leaf stage.
A weighed amount, determined by the highest rate to be tested, of each test compound was placed in a 25 mL glass vial and was dissolved in 4 mL of a 97:3 v/v mixture of acetone and DMSO to obtain concentrated stock solutions. […] The concentrated stock solutions obtained were diluted with 20 mL of an aqueous mixture containing acetone, water, isopropyl alcohol, DMSO, Agri-Dex crop oil concentrate, and X-77 surfactant in a 48:39:10:1.5:1.5:0.02 v/v ratio to obtain spray solutions containing the highest application rates. Additional application rates were obtained by serial dilution of 12 mL of the high rate solution into a solution containing 2 mL of 97:3 v/v mixture of acetone and DMSO and 10 mL of an aqueous mixture containing acetone, water, isopropyl alcohol, DMSO, Agri-Dex crop oil concentrate, and X-77 surfactant in a 48:39:10:1.5:1.5:0.02 v/v ratio to obtain 1/2×, 1/4×, 1/8× and 1/16× rates of the high rate. Compound requirements are based upon a 12 mL application volume at a rate of 187 liters per hectare (L/ha). Formulated compounds were applied to the plant material with an overhead Mandel track sprayer equipped with 8002E nozzles calibrated to deliver 187 L/ha over an application area of 0.503 square meters at a spray height of 18 inches (43 cm) above the average plant canopy height. Control plants were sprayed in the same manner with the solvent blank.
The treated plants and control plants were placed in a greenhouse as described above and watered by subirrigation to prevent wash-off of the test compounds. After 21 d, the condition of the test plants as compared with that of the untreated plants was determined visually and scored on a scale of 0 to 100 percent where 0 corresponds to no injury and 100 corresponds to complete kill. By applying the well-accepted probit analysis as described by J. Berkson in Journal of the American Statistical […], 48, 565 (1953) and by D. Finney in “Probit Analysis” Cambridge University Press (1952), the above data can be used to calculate GR20, GR50, GR80 and GR90 values, which are defined as growth reduction factors that correspond to the effective dose of herbicide required to kill or control 20 percent, 50 percent, 80 percent or 90 percent, respectively, of a target plant.

COC(=O)c1nc(-c2ccc(Cl)c3ccoc23)c(F)c(N)c1Cl [Compound 2.24]
Visual Growth Reduction (%) 21 Days After Application, CIRAR (CIRAR, 17.5 g ai/ha): D (60-74)
Visual Growth Reduction (%) 21 Days After Application, CIRAR (CIRAR, 35 g ai/ha): C (75-84)
Visual Growth Reduction (%) 21 Days After Application, CIRAR (CIRAR, 70 g ai/ha): B (85-94)
GR50, CIRAR (CIRAR, dose for 50 percent growth reduction, probit analysis): 14 g ai/ha
GR80, CIRAR (CIRAR, dose for 80 percent growth reduction, probit analysis): 35 g ai/ha
GR90, CIRAR (CIRAR, dose for 90 percent growth reduction, probit analysis): 57 g ai/ha
Visual Growth Reduction (%) 21 Days After Application, GALAP (GALAP, 17.5 g ai/ha): D (60-74)
Visual Growth Reduction (%) 21 Days After Application, GALAP (GALAP, 35 g ai/ha): B (85-94)
Visual Growth Reduction (%) 21 Days After Application, GALAP (GALAP, 70 g ai/ha): B (85-94)
GR50, GALAP (GALAP, dose for 50 percent growth reduction, probit analysis): 7 g ai/ha
GR80, GALAP (GALAP, dose for 80 percent growth reduction, probit analysis): 23 g ai/ha
GR90, GALAP (GALAP, dose for 90 percent growth reduction, probit analysis): 44 g ai/ha
Visual Growth Reduction (%) 21 Days After Application, HORVS (HORVS, 17.5 g ai/ha): G (0-29)
Visual Growth Reduction (%) 21 Days After Application, HORVS (HORVS, 35 g ai/ha): G (0-29)
Visual Growth Reduction (%) 21 Days After Application, HORVS (HORVS, 70 g ai/ha): G (0-29)
GR20, HORVS (HORVS, dose for 20 percent growth reduction, probit analysis): 66 g ai/ha
Visual Growth Reduction (%) 21 Days After Application, KCHSC (KCHSC, 17.5 g ai/ha): D (60-74)
Visual Growth Reduction (%) 21 Days After Application, KCHSC (KCHSC, 35 g ai/ha): C (75-84)
Visual Growth Reduction (%) 21 Days After Application, KCHSC (KCHSC, 70 g ai/ha): B (85-94)
GR50, KCHSC (KCHSC, dose for 50 percent growth reduction, probit analysis): 4 g ai/ha
GR80, KCHSC (KCHSC, dose for 80 percent growth reduction, probit analysis): 33 g ai/ha
GR90, KCHSC (KCHSC, dose for 90 percent growth reduction, probit analysis): 103 g ai/ha
Visual Growth Reduction (%) 21 Days After Application, LAMPU (LAMPU, 17.5 g ai/ha): E (45-59)
Visual Growth Reduction (%) 21 Days After Application, LAMPU (LAMPU, 35 g ai/ha): D (60-74)
Visual Growth Reduction (%) 21 Days After Application, LAMPU (LAMPU, 70 g ai/ha): C (75-84)
GR50, LAMPU (LAMPU, dose for 50 percent growth reduction, probit analysis): 15 g ai/ha
GR80, LAMPU (LAMPU, dose for 80 percent growth reduction, probit analysis): 93 g ai/ha
GR90, LAMPU (LAMPU, dose for 90 percent growth reduction, probit analysis): >140 g ai/ha
Visual Growth Reduction (%) 21 Days After Application, MATCH (MATCH, 17.5 g ai/ha): G (0-29)
Visual Growth Reduction (%) 21 Days After Application, MATCH (MATCH, 35 g ai/ha): G (0-29)
Visual Growth Reduction (%) 21 Days After Application, MATCH (MATCH, 70 g ai/ha): G (0-29)
GR50, MATCH (MATCH, dose for 50 percent growth reduction, probit analysis): 114 g ai/ha
GR80, MATCH (MATCH, dose for 80 percent growth reduction, probit analysis): >140 g ai/ha
GR90, MATCH (MATCH, dose for 90 percent growth reduction, probit analysis): >140 g ai/ha
Visual Growth Reduction (%) 21 Days After Application, PAPRH (PAPRH, 17.5 g ai/ha): D (60-74)
Visual Growth Reduction (%) 21 Days After Application, PAPRH (PAPRH, 35 g ai/ha): D (60-74)
Visual Growth Reduction (%) 21 Days After Application, PAPRH (PAPRH, 70 g ai/ha): C (75-84)
GR50, PAPRH (PAPRH, dose for 50 percent growth reduction, probit analysis): 24 g ai/ha
GR80, PAPRH (PAPRH, dose for 80 percent growth reduction, probit analysis): 52 g ai/ha
GR90, PAPRH (PAPRH, dose for 90 percent growth reduction, probit analysis): 77 g ai/ha
Visual Growth Reduction (%) 21 Days After Application, SASKR (SASKR, 17.5 g ai/ha): D (60-74)
Visual Growth Reduction (%) 21 Days After Application, SASKR (SASKR, 35 g ai/ha): B (85-94)
Visual Growth Reduction (%) 21 Days After Application, SASKR (SASKR, 70 g ai/ha): B (85-94)
GR50, SASKR (SASKR, dose for 50 percent growth reduction, probit analysis): 3 g ai/ha
GR80, SASKR (SASKR, dose for 80 percent growth reduction, probit analysis): 28 g ai/ha
GR90, SASKR (SASKR, dose for 90 percent growth reduction, probit analysis): 95 g ai/ha
Visual Growth Reduction (%) 21 Days After Application, SINAR (SINAR, 17.5 g ai/ha): B (85-94)
Visual Growth Reduction (%) 21 Days After Application, SINAR (SINAR, 35 g ai/ha): A (95-100)
Visual Growth Reduction (%) 21 Days After Application, SINAR (SINAR, 70 g ai/ha): A (95-100)
GR50, SINAR (SINAR, dose for 50 percent growth reduction, probit analysis): 6 g ai/ha
GR80, SINAR (SINAR, dose for 80 percent growth reduction, probit analysis): 13 g ai/ha
GR90, SINAR (SINAR, dose for 90 percent growth reduction, probit analysis): 19 g ai/ha
Visual Growth Reduction (%) 21 Days After Application, TRZAS (TRZAS, 17.5 g ai/ha): G (0-29)
Visual Growth Reduction (%) 21 Days After Application, TRZAS (TRZAS, 35 g ai/ha): G (0-29)
Visual Growth Reduction (%) 21 Days After Application, TRZAS (TRZAS, 70 g ai/ha): F (30-44)
GR20, TRZAS (TRZAS, dose for 20 percent growth reduction, probit analysis): 52 g ai/ha
Visual Growth Reduction (%) 21 Days After Application, VERPE (VERPE, 17.5 g ai/ha): F (30-44)
Visual Growth Reduction (%) 21 Days After Application, VERPE (VERPE, 35 g ai/ha): D (60-74)
Visual Growth Reduction (%) 21 Days After Application, VERPE (VERPE, 70 g ai/ha): C (75-84)
GR50, VERPE (VERPE, dose for 50 percent growth reduction, probit analysis): 30 g ai/ha
GR80, VERPE (VERPE, dose for 80 percent growth reduction, probit analysis): 66 g ai/ha
GR90, VERPE (VERPE, dose for 90 percent growth reduction, probit analysis): 100 g ai/ha
Visual Growth Reduction (%) 21 Days After Application, VIOTR (VIOTR, 17.5 g ai/ha): E (45-59)
Visual Growth Reduction (%) 21 Days After Application, VIOTR (VIOTR, 35 g ai/ha): D (60-74)
Visual Growth Reduction (%) 21 Days After Application, VIOTR (VIOTR, 70 g ai/ha): C (75-84)
GR50, VIOTR (VIOTR, dose for 50 percent growth reduction, probit analysis): 24 g ai/ha
GR80, VIOTR (VIOTR, dose for 80 percent growth reduction, probit analysis): 78 g ai/ha
GR90, VIOTR (VIOTR, dose for 90 percent growth reduction, probit analysis): >140 g ai/ha
